Experimental data published in publication PMC2149952 (British Journal of Cancer, 1998).
Where two headings read alike, the source gives them in different places.

How the values were obtained:
[1] = design: method as in O'Reilly et al, 1996b; settings: ref O'Reilly et al, 1996b; cited from earlier work
[2] = in vivo
Method: British Joumal of Cancer (1998) 77(5), 808-81 1 ? […] Penclomedine administration by 1-h intravenous infusion on 5 consecutive days was repeated 3 weekly in the absence of dose-limiting toxicity (DLT) or disease progression. Five dose levels were investigated (22.5-340 mg m-2 day-'). Eight men and eight women were entered, median age 59 years (range 39-73 years), with good performance status (ECOG 0/1) in 11 patients. A total of 13 out of 16 patients had received previous chemotherapy. […] Neurotoxicity developed during the 1-h infusion and persisted for a variable period (maximum 5 h) after infusion. […] Penclomedine pharmacokinetic studies confirmed preclinical evidence of extensive apparent distribution (931 m-2) and rapid clearance (41 1 h-1m-2). […] Therefore, an experimental formulation of penclomedine as a 10% oil in water emulsion was developed for intravenous (i.v.) administration. […] Single treatments were effective when administered intra- venously, but the dose used in a rapid bolus push was limited by acute lethality. […] Penclomedine has also been tested in drug-resistant cell lines (doxorubicin, vincristine, cisplatinum, methotrexate, Ara-C and 5-FU) including the multidrug-resistant (MDR) phenotype. […] Preclinical toxicology studies were performed in mice, rats, and dogs. In mice, the maximum tolerated dose (MTD) was 150 mg kg-' (450 mg m-2) as a single i.v. dose and 80 mg kg-' day-' (240 mg m-2 day-'; total dose 1200 mg m-2) on a daily x 5 schedule. […] 808 Phase I trial of penclomedine 809 The aims of this phase I study were: (a) to determine the MTD of penclomedine when administered i.v. once daily for 5 days every 21 days; (b) to identify the toxicity profile of penclomedine and to determine whether this is predictable, tolerable and reversible, and to define dose-limiting toxicities in patients; (c) to determine the pharmacokinetics of penclomedine at different dose levels; (d) to define a safe dose for subsequent phase II studies of anti-tumour activity; and (e) to observe and record any possible therapeutic effectiveness of penclomedine. MATERIALS AND METHODS This was an open non-randomized study with dose escalation that continued until the dose-limiting toxicity was defined. A minimum of three patients were treated at each dose level. […] All patients were required to give written informed consent. Before commencing the study ethical approval was obtained from the Medicine and Clinical Oncology Research Ethics Sub-Committee of Lothian Health Board (ref. MCO/ 105/92) and the study was conducted according to the Helsinki Declaration. This trial was conducted under the auspices of the Cancer Research Campaign Phase I/II Clinical Trials Committee. […]

malignancy = assay: Phase I study: tumour response (UICC criteria); type: in vivo; settings: 16 patients, all dose levels
Method: British Joumal of Cancer (1998) 77(5), 808-81 1 ? […] Penclomedine administration by 1-h intravenous infusion on 5 consecutive days was repeated 3 weekly in the absence of dose-limiting toxicity (DLT) or disease progression. Five dose levels were investigated (22.5-340 mg m-2 day-'). Eight men and eight women were entered, median age 59 years (range 39-73 years), with good performance status (ECOG 0/1) in 11 patients. A total of 13 out of 16 patients had received previous chemotherapy. […] Neurotoxicity developed during the 1-h infusion and persisted for a variable period (maximum 5 h) after infusion. […] Penclomedine pharmacokinetic studies confirmed preclinical evidence of extensive apparent distribution (931 m-2) and rapid clearance (41 1 h-1m-2). […] Therefore, an experimental formulation of penclomedine as a 10% oil in water emulsion was developed for intravenous (i.v.) administration. […] Single treatments were effective when administered intra- venously, but the dose used in a rapid bolus push was limited by acute lethality. […] Penclomedine has also been tested in drug-resistant cell lines (doxorubicin, vincristine, cisplatinum, methotrexate, Ara-C and 5-FU) including the multidrug-resistant (MDR) phenotype. […] Preclinical toxicology studies were performed in mice, rats, and dogs. […]

[3] = design: method as in personal communication, AC Smith, NCI; settings: mice, ref personal communication, AC Smith, NCI, cited from earlier work
[4] = tested on: mouse CD8F, mammary carcinoma; design: method as in Plowman et al, 1989; settings: ref Plowman et al, 1989; cited from earlier work
[5] = tested on: subrenal capsule xenograft of the human MX-1 mammary carcinoma; design: method as in Harrison 1991; settings: oral 300 mg kg-1 day-1 on days 13, 17 and 21; for 40 days after the last treatment; ref Harrison 1991; cited from earlier work
[6] = design: method as in Prankerd et al, 1989; settings: ref Prankerd et al, 1989; cited from earlier work
[7] = design: method as in Reid et al, 1992; settings: ref Reid et al, 1992; cited from earlier work
[8] = design: method as in Reid et al, 1992; settings: ref Reid et al, 1992, cited from earlier work
[9] = tested on: drug-resistant cell lines; design: method as in Harrison et al, 1991; settings: ref Harrison et al, 1991, cited from earlier work
[10] = tested on: human MX-1 mammary tumour xenograft; settings: cited from earlier work
cerebellum = tested on: cerebellum; design: method as in O'Reilly et al, 1996a; settings: ref O'Reilly et al, 1996a, cited from earlier work
[11] = cited from earlier work
[12] = Plasma pharmacokinetics in phase I patients (HPLC, two-compartment model); type: in vivo
Method: British Joumal of Cancer (1998) 77(5), 808-81 1 ? […] Penclomedine administration by 1-h intravenous infusion on 5 consecutive days was repeated 3 weekly in the absence of dose-limiting toxicity (DLT) or disease progression. Five dose levels were investigated (22.5-340 mg m-2 day-'). Eight men and eight women were entered, median age 59 years (range 39-73 years), with good performance status (ECOG 0/1) in 11 patients. A total of 13 out of 16 patients had received previous chemotherapy. […] Neurotoxicity developed during the 1-h infusion and persisted for a variable period (maximum 5 h) after infusion. […] Penclomedine pharmacokinetic studies confirmed preclinical evidence of extensive apparent distribution (931 m-2) and rapid clearance (41 1 h-1m-2). […] Therefore, an experimental formulation of penclomedine as a 10% oil in water emulsion was developed for intravenous (i.v.) administration. […] Single treatments were effective when administered intra- venously, but the dose used in a rapid bolus push was limited by acute lethality. […] Penclomedine has also been tested in drug-resistant cell lines (doxorubicin, vincristine, cisplatinum, methotrexate, Ara-C and 5-FU) including the multidrug-resistant (MDR) phenotype. […] Preclinical toxicology studies were performed in mice, rats, and dogs. In mice, the maximum tolerated dose (MTD) was 150 mg kg-' (450 mg m-2) as a single i.v. dose and 80 mg kg-' day-' (240 mg m-2 day-'; total dose 1200 mg m-2) on a daily x 5 schedule. […] 808 Phase I trial of penclomedine 809 The aims of this phase I study were: (a) to determine the MTD of penclomedine when administered i.v. once daily for 5 days every 21 days; (b) to identify the toxicity profile of penclomedine and to determine whether this is predictable, tolerable and reversible, and to define dose-limiting toxicities in patients; (c) to determine the pharmacokinetics of penclomedine at different dose levels; (d) to define a safe dose for subsequent phase II studies of anti-tumour activity; and (e) to observe and record any possible therapeutic effectiveness of penclomedine. MATERIALS AND METHODS This was an open non-randomized study with dose escalation that continued until the dose-limiting toxicity was defined. A minimum of three patients were treated at each dose level. […] All patients were required to give written informed consent. Before commencing the study ethical approval was obtained from the Medicine and Clinical Oncology Research Ethics Sub-Committee of Lothian Health Board (ref. MCO/ 105/92) and the study was conducted according to the Helsinki Declaration. This trial was conducted under the auspices of the Cancer Research Campaign Phase I/II Clinical Trials Committee. […] Adequate bone marrow, hepatic and renal function was required (WBC > 3 x 109 1-1, platelet count > 100 x 109 1-1, serum creatinine < 120 gmmol 1-l, bilirubin < 30 gmol 1-1, and other liver function tests within twice the upper limit of normal (unless known to be related to liver metastases)). Patients were deemed ineligible in the event of pregnancy or lactation, previous chemotherapy or radiotherapy within the last 4 weeks (6 weeks for nitrosoureas or mitomycin C), the presence of another non-malignant disease that in the opinion of the investi- gator was incompatible with this protocol, concurrent administra- tion of another investigational drug, or cytotoxic, hormonal or biological therapy. Patients with brain metastases or primary brain tumours were excluded and also patients with epilepsy or chronic neurological disorders that might interfere with the assessment of neurological toxicity. Penclomedine was formulated as a de novo emulsion (in 100 ml: soybean oil, […]; lecithin, 30 mg; glycerin 20 mg and water for injection) and stored as intact vials under refrigeration (2-8?C). Penclomedine emulsions were diluted up to 1:10 using 5% dextrose solution. […] Penclomedine was supplied by the NCI DCT under the special foreign exemption mechanism established with the FDA. […]

[13] = tested on: human H82 small cell lung carcinoma xenografts; design: method as in Harrison 1991; settings: oral 445 mg kg-1 day-1; ref Harrison 1991; cited from earlier work
[14] = mean of 10 patients, 150-340 mg m-2 day-1, initial 24 h

SMILES: COc1nc(C(Cl)(Cl)Cl)c(Cl)c(OC)c1Cl [penclomedine, 3,5-Dichloro-2,4-dimethoxy-6-(trichloromethyl)pyridine]
- chemical species found in rat brain [1]: predominant chemical species
- persistence of neurotoxicity after infusion (maximum) ([2]; both, human): ≤ 5 h
- dose at which dose-limiting toxicity occurred ([2]; both, human, iv, 5 days): 340 mg m-2 day-1
- antiproliferative toxicities (myelosuppression, mucositis) [2]: No antiproliferative toxicities were noted
- dose-limiting toxicity (DLT) ([2]; iv): Neurotoxicity (cerebellar ataxia and dizziness)
- anti-tumour responses (malignancy): no anti-tumour responses were documented
- dose-limiting toxicity ([3]; daily x 5 schedule): bone marrow suppression
- maximum tolerated dose (MTD), total dose ([3]; daily x 5 schedule): 1200 mg m-2
- dose-limiting toxicity ([3]; single dose schedule): neurological
- anti-tumour activity [4]: good activity
- tumour regression [5]: complete regression of all tumours
- solubility in non-polar solvents and lipids [6]: soluble
- solubility in water [6]: poorly soluble
- in vitro metabolism [7]: subject to metabolism under both oxidative and reductive conditions
- metabolism of radiolabelled penclomedine ([8]; after both i.v. and oral administration): extensive
- clearance ([8]; mice, parent drug): 114 ml min-m m-2
- half-life ([8]; mice, parent drug): 1.15 h
- volume of distribution ([8]; mice, parent drug): 4.8 l m-2
- oral bioavailability of the parent compound ([8]; mice): 2%
- activity in resistant versus wild-type cell lines ([9]; lines resistant to doxorubicin, vincristine, cisplatinum, methotrexate, Ara-C and 5-FU, including MDR phenotype): equivalent activity
- sensitivity of AMSA-resistant line [9]: collaterally sensitive
- sensitivity of L-PAM-resistant line [9]: resistant
- tumour-free survivors ([10]; advanced stage MX-1 mammary carcinoma, oral 135 mg kg-1 day-1 for 5 days, oil in water emulsion, ref Harrison et al, 1991): ten out of ten
- anti-tumour activity ([10]; human MX-1 mammary tumour xenograft, ref Plowman et al, 1989): good activity
- cerebellar finding in preclinical models (cerebellum; after intraperitoneal administration): Purkinje cell loss
- single dose producing visible pathological changes in the cerebellum (cerebellum; rats, intraperitoneal injection, may be irreversible): ≥ 150 mg kg-1
- toxicity at the MTD ([11]; beagle dogs, 90 mg kg-1, ref Dixit et al, 1992): reversible myelosuppression
- plasma penclomedine concentrations ([11]; beagle dogs, 90 mg kg-1 dose level, not associated with neurotoxicity, ref Dixit et al, 1992): 6 to 9 µg/mL
- maximum tolerated dose (MTD) ([11]; beagle dogs, single 5-h infusion, ref Dixit et al, 1992): 90 mg/kg
- toxicity at higher dosages ([11]; dog, in vivo): dose-limiting neurotoxicity
- dose dependence of total body clearance ([12]; 150-340 mg m-2 day-1): did not vary with dose
- metabolites in plasma of patients ([12]; human, in vivo): not detected
- apparent distribution volume (mean Vc + Vp) ([12]; human, in vivo, iv): 93 l m-2
- half-life ([12]; human, in vivo, patients, read-out: apparent elimination phase half-life (t1/2 beta) (converted)): 2.4 h
- half-life ([12]; human, in vivo, patients, read-out: initial distribution phase half-life (t1/2 alpha)): 0.2 h
- Cld (distributional clearance), mean [12, 14]: 43 l h-1 m-2
- Clt (total body clearance), mean [12, 14]: 41 l h-1 m-2
- clearance ([12]; patients, i.v. infusion, abstract): 41 l h-1 m-2
- complete regressions [13]: six out of ten
- partial regressions [13]: four out of ten
